Here are results for two molecules from paper PMC8280061, “A novel ligand of the translationally controlled tumor protein (TCTP) identified by virtual drug screening for cancer differentiation therapy” (Investigational New Drugs, 2021).

The target of assay [1] is T1, translationally controlled tumor protein (TCTP) (Homo sapiens, UniProt P13693).
T1 construct: gene TPT1
T1 sequence (P13693 1-172): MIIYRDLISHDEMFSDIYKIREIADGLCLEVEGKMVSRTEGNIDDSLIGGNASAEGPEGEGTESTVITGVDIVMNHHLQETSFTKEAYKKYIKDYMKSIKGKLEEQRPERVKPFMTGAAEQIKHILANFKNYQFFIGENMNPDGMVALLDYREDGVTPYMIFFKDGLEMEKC
The assay is described as follows: microscale thermophoresis with NHS-labeled purified human TCTP (reference inhibitor, positive control). Format: binding. (In general: In MST a laser heats a spot of the sample, and binding alters the fluorescence response.)

Assay [2] deals with T1, translationally controlled tumor protein (TCTP). Put plainly: microscale thermophoresis with NHS-labeled purified human TCTP; supported by co-immunoprecipitation of p53 from treated MOLT-4 cells. In kind it is binding.

The term Kd denotes the free concentration of one partner at which half of the binding sites on the other are occupied at equilibrium, for simple one-to-one binding. High values mean weaker binding, low ones tighter binding. Take `C[C@H]1[C@H](OC(=O)CCC(=O)O)O[C@@H]2O[C@@]3(C)CC[C@H]4[C@H](C)CC[C@@H]1[C@@]24OO3` [Artesunate]: binding in assay [1] was characterised by a dissociation constant (Kd) of 23.2 ± 9.45 µM.

`COc1cccc2c(C)nc(Nc3nc(-c4ccc(F)cc4)cc(=O)[nH]3)nc12` [ZINC10157406, 6-(4-fluorophenyl)-2-[(8-methoxy-4-methyl-2-quinazolinyl)amino]-4(3H)-pyrimidinone]: binding in assay [2] was characterised by a dissociation constant (Kd) of 0.87 ± 0.38 µM.
